Experimental data reported in patent publication US10894036B2, “Use of marizomib for the treatment of central nervous system (CNS) cancers” (Celgene International II Sàrl, priority 2016, dated 2021).
“And” between values parts separate entries of the source, which are not always exact repeats. Identical values can stand only once.

Legend:
[1] = system: WHO Grade IV Malignant Glioma; assay: Phase 1/2 MRZ + BEV and MRZ monotherapy in recurrent G4 MG: tumor response by RANO, PFS, OS; format: in vivo, human; settings: for Best Response NE (2), patients: MRZ monotherapy ITT
From the text: The drugs were infused on 28-Day Cycles.
Tumor response, including PD activity, progression-free survival (PFS), and overall survival (OS) will be assessed. Tumor response will be assessed by the Investigators using RANO 2010 criteria. The overall confirmed response rate will be presented. The response rate, PFS, and OS will also be tabulated by dose cohorts in Part 1 Phase 1 and for all response-evaluable patients in Part 2 Phase 2 and Part 3 Phase 2. Endpoints of response based on tumor assessments will be calculated for subjects who received at least 3 doses of MRZ and had at least 1 post-dose tumor evaluation.

[2] = system: 20S Proteasome; assay: 20S proteasome activity (% inhibition) in rodent brain; format: in vivo, mouse
[3] = system: human glioblastoma (GBM) cell lines; assay: Migration and matrix invasion of GBM cell lines; format: cell-based; settings: either of two GBM lines
From the text: In vitro studies of multiple glioma cell lines were highly sensitive to MRZ. […] Treatment with MRZ decreased matrix invasion by either of two GBM lines by approximately 90%, a highly significant effect.

[4] = system: D54MG cells; assay: Intracranial GBM xenograft survival; format: in vivo; settings: athymic BALB/c nu/nu mice, MRZ IV twice weekly
Experimental: 1×10^5 D54MG cells implanted into right frontal lobes of athymic BALB/c nu/nu mice. MRZ administered IV twice weekly.

[5] = Quantitative whole body autoradiography: distribution to brain; format: in vivo, rat; settings: rats
From the text: The definition of marizomib is understood to include marizomib as well as pharmaceutically acceptable salts, prodrugs, solvates, hydrates, tautomers, or isomers thereof. In specific embodiments, the term marizomib refers to Compound 1 or a pharmaceutically acceptable salt thereof. Without wishing to be bound by theory, marizomib is a proteasome inhibitor with unique features compared to other proteasome inhibitors. For example, marizomib inhibits all three catalytic activities of the proteasome and is capable of crossing the blood brain barrier (BBB). […] Radiolabeled marizomib has shown 30% CNS biodistribution compared with blood levels in rats. Marizomib can elicit a significant anti-tumor effect in a rodent model of malignant glioma.

[6] = MRZ + BEV N = 10, MRZ monotherapy N = 7
[7] = MRZ + BEV N = 22, MRZ monotherapy N = 18
[8] = MRZ monotherapy 0.8 mg/m^2, first 15 recurrent glioma patients
[9] = tumor-bearing mouse, IV, individual mice 1 and 2
[10] = tumor-bearing mouse, IV, individual mice 1 and 2, NE = No Effect, listed as MRZ
[11] = tumor-bearing mouse, IV, individual mice 1 and 2, listed as MRZ

## C[C@@]12OC(=O)[C@]1([C@@H](O)[C@@H]1C=CCCC1)NC(=O)[C@@H]2CCCl [marizomib]
[1]; All Patients
  OS 6 mo %: 64%
  OS 9 mo %: 64%
[1]; [6]
  Median OS, methylated MGMT promoter: Undefined
  Median PFS, methylated MGMT promoter: 1.7 Months
  OS 6 Months, methylated: 83%
  OS 9 Months, methylated: 83%
[1]; [7]
  Median OS, unmethylated MGMT promoter: Undefined
  Median PFS, unmethylated MGMT promoter: 1.9 Months
  OS 6 Months, unmethylated: 65%
  OS 9 Months, unmethylated: 65%
[1]; [8]
  partial remission, patients: 1
  stable disease, additional patients: 2
[1]; methylated, N = 7
  Best Response NE (2), patients: 0
[1]; unknown, N = 5
  Best Response NE (2), patients: 1
[1]; unmethylated, N = 18
  Best Response NE (2), patients: 1
[1]; MRZ monotherapy, N = 7
  PFS 3 mo, methylated: 40%
[1]; MRZ monotherapy, N = 18
  PFS 3 mo, unmethylated: 20%
[1]; MRZ monotherapy, N = 30
  patients on the study for ≥4 cycles: Six
  progression on marizomib alone: most patients demonstrated rapid progression
[1]; MRZ monotherapy, 2nd recurrence, current cycle 10
  Best Response, Pt 0511: PR (≥50% decrease compared with baseline in the sum of products of perpendicular diameters of all measurable enhancing lesions sustained for at least 4 weeks)
[1]; Methylated MGMT Promoter
  OS 6 mo %: 83%
  OS 9 mo %: 83%
[1]; Unmethylated MGMT Promoter
  OS 6 mo %: 65%
  OS 9 mo %: 65%
[1]; ≥ stable disease and >4 cycles (Table 38)
  patients found to respond to marizomib monotherapy: four
[2]; mouse
  proteasome activity in brain: inhibits proteasome activity
[2]; tumor-bearing mouse
  CT-L activity in brain: inhibits CT-L activity in brain
[2]; [9]
  20S Proteasome Activity (% Inhibition), Blood, Peak (2 hr): 99%
  20S Proteasome Activity (% Inhibition), Blood, Trough: 87%
[2]; [10]
  20S Proteasome Activity (% Inhibition), Brain, Peak (2 hr): 94% and 98%
  20S Proteasome Activity (% Inhibition), Brain, Trough: 52% and 41%
[2]; [11]
  20S Proteasome Activity (% Inhibition), Tumor, Peak (2 hr): 56% and 77%
  20S Proteasome Activity (% Inhibition), Tumor, Trough: 15% and 0%
[3]
  decrease of matrix invasion: approximately 90%
[4]
  activity in intracranial GBM xenograft: Active
[5]; quantitative whole body autoradiography
  distribution to brain relative to plasma Cmax: ~30%
[5]; radiolabeled marizomib
  CNS biodistribution compared with blood levels: 30%
